From ChEMBL document CHEMBL1123223, “New effective gonadotropin releasing hormone antagonists with minimal potency for histamine release in vitro” (J Med Chem, 1986)
pKd: −log10 of the molar value. Converted amounts (≈) assume the structure as drawn.

How the values were obtained:
Rattus norvegicus [1] = organism: Rattus norvegicus; assay: Dissociation constant was determined in rat pituitary cells.; type: cell-based; conditions: pituitary gland cell
[2] = target: T1, Gonadotropin-releasing hormone receptor (Rattus norvegicus) (UniProt P30969); assay: Inhibition of GnRH-mediated LH secretion by cultured pituitary cells; type: functional, cell-based; conditions: Pituitary gland cell
T1 sequence (whole entry): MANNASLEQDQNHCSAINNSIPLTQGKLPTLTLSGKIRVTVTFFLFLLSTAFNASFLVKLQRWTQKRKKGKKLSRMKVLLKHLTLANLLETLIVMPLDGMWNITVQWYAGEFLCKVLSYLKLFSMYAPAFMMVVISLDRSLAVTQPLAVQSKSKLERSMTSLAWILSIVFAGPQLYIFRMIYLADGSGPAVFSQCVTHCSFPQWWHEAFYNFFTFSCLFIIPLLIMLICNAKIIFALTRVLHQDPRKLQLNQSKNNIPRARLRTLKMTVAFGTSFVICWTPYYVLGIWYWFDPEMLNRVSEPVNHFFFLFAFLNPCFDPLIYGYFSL

Rattus norvegicus [3] = organism: Rattus norvegicus; assay: GnRH antagonistic dose of compound for 7 rats ovulation out of total 20 using anti-ovulatory assay; type: functional
Rattus norvegicus [4] = organism: Rattus norvegicus; assay: Compound was tested in vitro for its ability to inhibit histamine release from rat mast cells.; type: functional; conditions: read-out: ED50 (the source's name)
Rattus norvegicus [5] = organism: Rattus norvegicus; assay: GnRH antagonistic dose of compound for 0 rats ovulation out of total 10 using anti-ovulatory assay in experiment 2; type: functional
Rattus norvegicus [6] = organism: Rattus norvegicus; assay: GnRH antagonistic dose of compound for 5 rats ovulation out of total 10 using anti-ovulatory assay in experiment 1; type: functional
Rattus norvegicus [7] = organism: Rattus norvegicus; assay: GnRH antagonistic dose of compound for 0 rats ovulation out of total 10 using anti-ovulatory assay in experiment 1; type: functional
Rattus norvegicus [8] = organism: Rattus norvegicus; assay: GnRH antagonistic dose of compound for 8 rats ovulation out of total 16 using anti-ovulatory assay in experiment 1; type: functional
Rattus norvegicus [9] = organism: Rattus norvegicus; assay: Compound was evaluated for time course of action on LH secretion in the castrated male rat at a time interval of 1 hr at 125 microg; type: functional
Rattus norvegicus [10] = organism: Rattus norvegicus; assay: Compound was evaluated for time course of action on LH secretion in the castrated male rat at a time interval of 43 hr at 125 microg; type: functional
Rattus norvegicus [11] = organism: Rattus norvegicus; assay: Compound was evaluated for time course of action on LH secretion in the castrated male rat at a time interval of 67 hr at 125 microg; type: functional
Rattus norvegicus [12] = organism: Rattus norvegicus; assay: Compound was evaluated for time course of action on LH secretion in the castrated male rat at a time interval of 0 hr at 125 microg; type: functional
Rattus norvegicus [13] = organism: Rattus norvegicus; assay: Compound was evaluated for time course of action on LH secretion in the castrated male rat at a time interval of 19 hr at 125 microg; type: functional
Rattus norvegicus [14] = organism: Rattus norvegicus; assay: Compound was evaluated for time course of action on LH secretion in the castrated male rat at a time interval of 49 hr at 125 microg; type: functional
Rattus norvegicus [15] = organism: Rattus norvegicus; assay: Compound was evaluated for time course of action on LH secretion in the castrated male rat at a time interval of 73 hr at 125 microg; type: functional
Rattus norvegicus [16] = organism: Rattus norvegicus; assay: GnRH antagonistic dose of compound for 9 rats ovulation out of total 10 using anti-ovulatory assay; type: functional
Rattus norvegicus [17] = organism: Rattus norvegicus; assay: GnRH antagonistic dose of compound for 1 rats ovulation out of total 10 using anti-ovulatory assay in experiment 1; type: functional
Rattus norvegicus [18] = organism: Rattus norvegicus; assay: GnRH antagonistic dose of compound for 8 rats ovulation out of total 10 using anti-ovulatory assay; type: functional

Row | Relative potency [2] | EC50 (Rattus norvegicus [4]) | Compound | pKd (Rattus norvegicus [1]) | also measured
1 | 1.16 | 2.7 µg/mL (≈ 1.8 µM) | CC(=O)N[C@H](Cc1ccc2ccccc2c1)C(=O)N[C@H](Cc1ccc(Cl)cc1)C(=O)N[C@H](Cc1cccnc1)C(=O)N[C@@H](CO)C(=O)N[C@@H](CCCN=C(N)N)C(=O)N[C@H](Cc1c[nH]c2cc([N+](=O)[O-])ccc12)C(=O)N[C@@H](CC(C)C)C(=O)N[C@@H](CCCN=C(N)N)C(=O)N1CCC[C@H]1C(=O)N[C@H](C)C(=O)O | 9.20 | ED100 (Rattus norvegicus [3]): 0.5 µg/kg
2 | – | 17 µg/mL (≈ 12.2 µM) | CC(=O)N[C@H](Cc1ccc2ccccc2c1)C(=O)N[C@H](Cc1ccc(Cl)cc1)C(=O)N[C@H](Cc1cccnc1)C(=O)N[C@@H](CO)C(=O)N[C@@H](CCCN=C(N)N)C(=O)N[C@H](CCC(=O)O)C(=O)N[C@@H](CC(C)C)C(=O)N[C@@H](CCCN=C(N)N)C(=O)N1CCC[C@H]1C(=O)N[C@H](C)C(=O)O | – | ED100 (Rattus norvegicus [16]): 10 µg/kg
3 | 0.88 | 1.9 µg/mL (≈ 1.3 µM) | CC(=O)N[C@H](Cc1ccc2ccccc2c1)C(=O)N[C@H](Cc1ccc(Cl)cc1)C(=O)N[C@H](Cc1cccnc1)C(=O)N[C@@H](CO)C(=O)N[C@@H](CCCN=C(N)N)C(=O)N[C@H](Cc1ccc2ccccc2c1)C(=O)N[C@@H](CC(C)C)C(=O)N[C@@H](CCCN=C(N)N)C(=O)N1CCC[C@@H]1C(=O)N[C@H](C)C(=O)O | 8.30 | ED100 (Rattus norvegicus [18]): 1 µg/kg

Continued, molecule first:

Row | Compound | Relative potency [2] | EC50 (Rattus norvegicus [4]) | pKd (Rattus norvegicus [1]) | also measured
4 | CC(=O)N[C@H](Cc1ccc2ccccc2c1)C(=O)N[C@H](Cc1ccc(Cl)cc1)C(=O)N[C@H](Cc1cccnc1)C(=O)N[C@@H](CO)C(=O)N[C@@H](CCCN=C(N)N)C(=O)N[C@H](CCC(=O)O)C(=O)N[C@@H](CC(C)C)C(=O)N[C@@H](CCCN=C(N)N)C(=O)N1CCC[C@@H]1C(=O)N[C@H](C)C(=O)O | 0.09 | – | 9.80 | –
5 | CC(=O)N[C@H](Cc1ccc2ccccc2c1)C(=O)N[C@H](Cc1ccc(Cl)cc1)C(=O)N[C@H](Cc1cccnc1)C(=O)N[C@@H](CO)C(=O)N[C@@H](CCCN=C(N)N)C(=O)N[C@H](Cc1cccnc1)C(=O)N[C@@H](CC(C)C)C(=O)N[C@@H](CCCN=C(N)N)C(=O)N1CCC[C@H]1C(=O)N[C@H](C)C(=O)O | 0.91 | 2.9 µg/mL (≈ 2.05 µM) | 9.62 | ED100 (Rattus norvegicus [5]): 1 µg/kg; ED100 (Rattus norvegicus [6]): 0.5 µg/kg
6 | COc1ccc(C(=O)CC[C@@H](NC(=O)[C@H](CCCN=C(N)N)NC(=O)[C@H](CO)NC(=O)[C@@H](Cc2cccnc2)NC(=O)[C@@H](Cc2ccc(Cl)cc2)NC(=O)[C@@H](Cc2ccc3ccccc3c2)NC(C)=O)C(=O)N[C@@H](CC(C)C)C(=O)N[C@@H](CCCN=C(N)N)C(=O)N2CCC[C@H]2C(=O)N[C@H](C)C(=O)O)cc1 | 1.01 | 1.6 µg/mL (≈ 1.08 µM) | 9.17 | ED100 (Rattus norvegicus [7]): 1.5 µg/kg; ED100 (Rattus norvegicus [8]): 0.5 µg/kg; LH level (Rattus norvegicus [9]): 6.31 ng/mL; LH level (Rattus norvegicus [10]): 3.27 ng/mL; LH level (Rattus norvegicus [11]): 3.67 ng/mL; LH level (Rattus norvegicus [12]): 13.38 ng/mL; LH level (Rattus norvegicus [13]): 3.68 ng/mL; LH level (Rattus norvegicus [14]): 2.94 ng/mL; LH level (Rattus norvegicus [15]): 5.06 ng/mL
7 | COc1ccc(C(=O)CC[C@@H](NC(=O)[C@H](CCCN=C(N)N)NC(=O)[C@H](CO)NC(=O)[C@@H](Cc2cccnc2)NC(=O)[C@@H](Cc2ccc(Cl)cc2)NC(=O)[C@@H](Cc2ccc3ccccc3c2)NC(C)=O)C(=O)N[C@@H](CC(C)C)C(=O)N[C@@H](CCCN=C(N)N)C(=O)N2CCC[C@H]2C(=O)NCC(=O)O)cc1 | – | 3.2 µg/mL (≈ 2.17 µM) | 9.22 | ED100 (Rattus norvegicus [5]): 2.5 µg/kg; ED100 (Rattus norvegicus [17]): 1 µg/kg
8 | COc1ccc(C(=O)CC[C@@H](NC(=O)[C@H](Cc2ccc(O)cc2)NC(=O)[C@H](CO)NC(=O)[C@@H](Cc2cccnc2)NC(=O)[C@@H](Cc2ccc(Cl)cc2)NC(=O)[C@H]2CCCN2C(C)=O)C(=O)N(C)[C@@H](CC(C)C)C(=O)N[C@@H](CCCN=C(N)N)C(=O)N2CCC[C@@H]2C(=O)N[C@H](C)C(=O)O)cc1 | 0.13 | – | 9.51 | –
